Columns and labels:
Format in all cases: cell-based, mouse
[1] = system: 66cl4 cells; experiment: Measurement of extracellular pH of culture medium, 66cl4 cells; details: hypoxia 72 hours, CAI 17 600 μM
Experimental: (§1) The acquisition, generation and culture of the mouse breast cancer cell lines 4T1, 66cl4 and 67NR have been described previously^11. These 3 cell lines stably express a luciferase reporter^11 and were cultured routinely in DMEM supplemented with 10% FBS, non-essential amino acids and […] puromycin. Incubation in normoxia was carried out in a humidified atmosphere of 5% CO2 and 95% air at 37° C. Cells were maintained in conditions of hypoxia (1% O2 and 5% CO2 balanced with N2) at 37° C. in a humidified incubator positioned in a sealed anaerobic workstation.
(§2) Cells were plated in 60 mm dishes and allowed to recover for 24 hours. Growth medium was then replaced with a standard 3 ml volume of fresh media and cells were incubated in normoxia or hypoxia for 72 hours. Spent media was collected in 15 ml conical tubes, maintained at 37° C. and pH was measured immediately using a digital pH meter. Triplicate plates were run for each condition and results were averaged. Cell layers were kept on ice and were harvested for qRT-PCR and Western blot analysis.
CAI 17 was a generous gift from Dr. Claudiu Supuran (University of Florence, Florence, Italy). The chemical properties of this sulfonamide have been previously described^20,34. […]
(§3) Data are expressed as the mean change in extracellular pH±s.e.m. of triplicate samples and are representative of 3 independent experiments. […]

[2] = system: 66cl4 cells; experiment: Binding of FITC-tagged CAIX inhibitor to cells (epifluorescence), 66cl4 cells; details: hypoxia 72 hours, 10 μM
Experimental: (§4) CAI 17 was a generous gift from Dr. Claudiu Supuran (University of Florence, Florence, Italy). The chemical properties of this sulfonamide have been previously described^20,34. The sulfonamide was dissolved in 100% DMSO, stored at −80° C. and diluted into culture medium just prior to application. Subconfluent cell monolayers were incubated with CAI 17 for 72 hours in normoxia or hypoxia, washed 3× in PBS and imaged using a Ziess Axioplan epifluorescence microscope.
(§5) FIG. 4, part d, depicts localization of the fluorescent CAIX inhibitor, CAI 17, on cells. To determine whether the acidification was CAIX-dependent, cells were treated with a highly specific CAIX inhibitor (compound 17 or “CAI 17”)^20. Cells were incubated in normoxia or hypoxia for 72 hours in the presence of CAI 17 at a concentration of 10 μM. Shown are representative images of the FITC-tagged inhibitor bound to the cells under the indicated experimental conditions. Data were similar in 3 independent experiments.

[3] = system: 4T1 cells; experiment: Measurement of extracellular pH of culture medium, 4T1 cells; details: hypoxia 72 hours, CAI 17 400 μM
Experimental: as §1
as §2, with “analysis. […]” for “analysis.”
as §3
Data are expressed as the mean change in extracellular pH±s.e.m. and are representative of 2 independent experiments (each n=3).

[4] = system: 67NR cells; experiment: Binding of FITC-tagged CAIX inhibitor to cells (epifluorescence), 67NR cells; details: hypoxia 72 hours, 10 μM
Experimental: as §4, §5

[5] = system: 4T1 cells; experiment: Binding of FITC-tagged CAIX inhibitor to cells (epifluorescence), 4T1 cells; details: hypoxia 72 hours, 10 μM
Experimental: as §4, §5

NS(=O)(=O)c1ccc(CCNC(=S)Nc2ccc(-c3c4ccc(=O)cc-4oc4cc(O)ccc34)c(C(=O)O)c2)cc1 [CAI 17]
acidification of the extracellular medium under hypoxia [1]: reversed acidification of the extracellular medium
binding of FITC-tagged inhibitor to cell surfaces [2]: binds to the cell surfaces
acidification of the extracellular medium under hypoxia [3]: reversed acidification of the extracellular medium
binding of FITC-tagged inhibitor to cell surfaces [4]: not
binding of FITC-tagged inhibitor to cell surfaces [5]: binds to the cell surfaces
